Assays:
[1] = tested on: pain induced by phenylquinone; assay: Phenylquinone writhing test (PQW), analgesic activity; type: in vivo, female white mice; conditions: oral
Experimental: A standard procedure for detecting and comparing the analgesic activity of a series of compounds for which there is good correlation with human efficacy is the standard phenylquinone writhing test (PQW) modified from Siegmund, et al., Proc. Soc. Exp. Biol. Med., 95, 729 (1957). A test compound suspended in 1% methocellulose was given orally to fasted (17-21 hours) female white mice, 5-20 animals per double blind test. Aqueous (0.1% phenyl-p-benzoquinone) phenylquinone was injected intraperitoneally at 24 minutes later using 0.20 ml per mouse. […] The effective analgesic dose for 50% of the mice (ED50) was calculated by the moving average method of Thompson, W. R., Bact. Rev., 11, 115-145 (1947).

[2] = tested on: Straub tail induced by morphine; conditions: literature, Blumberg et al. 1968; cited from earlier work
[3] = tested on: Straub tail induced by morphine; assay: Anti-Straub Tail test, antagonism of morphine-induced Straub tail; type: in vivo, Female CF1 S mice; conditions: relative to naloxone
Experimental: Narcotic analgesics produce in mice an erection and arching of the tail (90° or more) which is referable to spinal cord stimulation. This Straub tail reaction is not produced by other analgesics, including the narcotic antagonists.
H. B. Dayton and P. S. Wolf, The Pharmacologist, 10, 189 (1968)]. This property is the basis of a mouse test for narcotic antagonists.
Female CF1 S mice (fasted 17-21 hrs.), 5 per dose, were injected orally or subcutaneously (loose skin inside hind limb) with test drug at 0.67, 2, 6, 18, 54 and 162 mg/kg or other appropriate doses in 0.20 ml 1% Methocel® per mouse. Ten minutes later, 40 mg/kg (base weight) of morphine sulfate in 0.20 ml 1% Methocel® per mouse was given subcutaneously (nape of neck). The mice were observed continuously for the next 20 minutes after the first mouse of a group of 30 had received morphine. Prevention of a 90° Straub tail during this observation period was taken as indication of narcotic antagonist ability.

Structure (SMILES) | analgesic activity (in words) [1] | prevention of morphine-induced Straub tail (in words) [2] | also measured
C[C@H]1CC[C@@]2(O)[C@H]3Cc4ccc(O)c5c4[C@@]2(CCN3CC2CCCO2)[C@H]1O5 (some centres unmarked) [Compound 7] | weakly analgetic |  | 
C=CCN1CC[C@]23c4c5ccc(O)c4O[C@H]2[C@@H](O)C=C[C@H]3[C@H]1C5 [nalorphine] |  | prevent the induction of Straub tail in mice | 
C[C@H]1CC[C@@]2(O)[C@H]3Cc4ccc(O)c5c4[C@@]2(CCN3CC2CC2)[C@H]1O5 [Compound 1] |  |  | narcotic antagonism (in words) [3]: almost the antagonistic activity of naloxone
COc1ccc2c3c1O[C@H]1[C@@H](C)CC[C@@]4(O)[C@@H](C2)N(CC2CCCO2)CC[C@]314 (some centres unmarked) [Compound 6] | weakly analgetic |  | 
C=CCN1CC[C@]23c4c5ccc(O)c4O[C@H]2C(=O)CC[C@@]3(O)[C@H]1C5 [Naloxone] |  | prevent the induction of Straub tail in mice | 

Source: US4322426A, “17-Substituted-6-desoxy-7,8-dihydro-6α-methylnoroxymorphone narcotic antagonists” (priority 1980, dated 1982)
